Measurements reported in article PMC11352961, “Peptide dendrimers transfecting CRISPR/Cas9 plasmid DNA: optimization and mechanism” (RSC Chemical Biology, 2024).
Bridge positions count the residues as written; N and C are the ends. Square brackets hold non-standard residues; d marks the D form. Side chains are listed from the residue outwards. Peptide text beside a SMILES is read from it. I, II: the chains in the order shown. * marks the point of attachment. Stearoyl = CCCCCCCCCCCCCCCCCC(=O)*; Palmitoyl = CCCCCCCCCCCCCCCC(=O)*

Columns and labels:
HeLa cells = test: Cell viability by PrestoBlue assay after transfection, HeLa cells; type: cell-based; conditions: 4 h
HEK293 cells = test: Cell viability by PrestoBlue assay after transfection, HEK cells; type: cell-based; conditions: 4 h

SMILES	% viability HeLa cells (HeLa cells)	% viability HEK cells (HEK293 cells)
CC(C)C[C@@H](NC(=O)[C@@H](CC(C)C)NC(=O)[C@@H](CC(C)C)NC(=O)[C@@H](CC(C)C)NC(=O)[C@@H](CC(C)C)NC(=O)[C@@H](CCCCNC(=O)[C@@H](CC(C)C)NC(=O)[C@@H](CCCCN)NC(=O)[C@@H](CCCCNC(=O)[C@@H](CC(C)C)NC(=O)[C@@H](CCCCN)NC(=O)[C@@H](CCCCNC(=O)[C@@H](CC(C)C)NC(=O)[C@H](N)CCCCN)NC(=O)[C@@H](CC(C)C)NC(=O)[C@H](N)CCCCN)NC(=O)[C@@H](CC(C)C)NC(=O)[C@@H](CCCCN)NC(=O)[C@@H](CCCCNC(=O)[C@@H](CC(C)C)NC(=O)[C@H](N)CCCCN)NC(=O)[C@@H](CC(C)C)NC(=O)[C@H](N)CCCCN)NC(=O)[C@@H](CC(C)C)NC(=O)[C@@H](CCCCN)NC(=O)[C@@H](CCCCNC(=O)[C@@H](CC(C)C)NC(=O)[C@@H](CCCCN)NC(=O)[C@@H](CCCCNC(=O)[C@@H](CC(C)C)NC(=O)[C@H](N)CCCCN)NC(=O)[C@@H](CC(C)C)NC(=O)[C@H](N)CCCCN)NC(=O)[C@@H](CC(C)C)NC(=O)[C@@H](CCCCN)NC(=O)[C@@H](CCCCNC(=O)[C@@H](CC(C)C)NC(=O)[C@H](N)CCCCN)NC(=O)[C@@H](CC(C)C)NC(=O)[C@H](N)CCCCN)C(N)=O [Z28] (I: H-[dK][dL][dK]([dL-dK])[dK][dL][dK][dK][dL][dK][dL][dL][dL][dL][dL]-NH2 / II: H-[dK][dL][dK]([dL-dK])[dK][dL][dK][dK][dL] / III: H-[dK][dL][dK]([dL-dK])[dK][dL] / IV: H-[dK][dL][dK]([dL-dK])[dK][dL]; amide I:6-IV:C, I:9-II:C, II:6-III:C)	101 ± 7%	103 ± 0.2%
CCCCCCCCCCCCCCCC(=O)NCCCC[C@@H](NC(=O)[C@@H](CCCCNC(=O)[C@@H](CC(C)C)NC(=O)[C@@H](CCCCN)NC(=O)[C@@H](CCCCNC(=O)[C@@H](CC(C)C)NC(=O)[C@@H](CCCCN)NC(=O)[C@@H](CCCCNC(=O)[C@@H](CC(C)C)NC(=O)[C@H](N)CCCCN)NC(=O)[C@@H](CC(C)C)NC(=O)[C@H](N)CCCCN)NC(=O)[C@@H](CC(C)C)NC(=O)[C@@H](CCCCN)NC(=O)[C@@H](CCCCNC(=O)[C@@H](CC(C)C)NC(=O)[C@H](N)CCCCN)NC(=O)[C@@H](CC(C)C)NC(=O)[C@H](N)CCCCN)NC(=O)[C@@H](CC(C)C)NC(=O)[C@@H](CCCCN)NC(=O)[C@@H](CCCCNC(=O)[C@@H](CC(C)C)NC(=O)[C@@H](CCCCN)NC(=O)[C@@H](CCCCNC(=O)[C@@H](CC(C)C)NC(=O)[C@H](N)CCCCN)NC(=O)[C@@H](CC(C)C)NC(=O)[C@H](N)CCCCN)NC(=O)[C@@H](CC(C)C)NC(=O)[C@@H](CCCCN)NC(=O)[C@@H](CCCCNC(=O)[C@@H](CC(C)C)NC(=O)[C@H](N)CCCCN)NC(=O)[C@@H](CC(C)C)NC(=O)[C@H](N)CCCCN)C(N)=O [Z29] (I: H-[dK][dL][dK]([dL-dK])[dK][dL][dK][dK][dL][dK][dK](Palmitoyl)-NH2 / II: H-[dK][dL][dK]([dL-dK])[dK][dL][dK][dK][dL] / III: H-[dK][dL][dK]([dL-dK])[dK][dL] / IV: H-[dK][dL][dK]([dL-dK])[dK][dL]; amide I:6-IV:C, I:9-II:C, II:6-III:C)	95 ± 5%	87 ± 1%
CCCCCCCCCCCCCCCCCC(=O)NCCCC[C@@H](NC(=O)[C@@H](CCCCNC(=O)[C@@H](CC(C)C)NC(=O)[C@@H](CCCCN)NC(=O)[C@@H](CCCCNC(=O)[C@@H](CC(C)C)NC(=O)[C@@H](CCCCN)NC(=O)[C@@H](CCCCNC(=O)[C@@H](CC(C)C)NC(=O)[C@H](N)CCCCN)NC(=O)[C@@H](CC(C)C)NC(=O)[C@H](N)CCCCN)NC(=O)[C@@H](CC(C)C)NC(=O)[C@@H](CCCCN)NC(=O)[C@@H](CCCCNC(=O)[C@@H](CC(C)C)NC(=O)[C@H](N)CCCCN)NC(=O)[C@@H](CC(C)C)NC(=O)[C@H](N)CCCCN)NC(=O)[C@@H](CC(C)C)NC(=O)[C@@H](CCCCN)NC(=O)[C@@H](CCCCNC(=O)[C@@H](CC(C)C)NC(=O)[C@@H](CCCCN)NC(=O)[C@@H](CCCCNC(=O)[C@@H](CC(C)C)NC(=O)[C@H](N)CCCCN)NC(=O)[C@@H](CC(C)C)NC(=O)[C@H](N)CCCCN)NC(=O)[C@@H](CC(C)C)NC(=O)[C@@H](CCCCN)NC(=O)[C@@H](CCCCNC(=O)[C@@H](CC(C)C)NC(=O)[C@H](N)CCCCN)NC(=O)[C@@H](CC(C)C)NC(=O)[C@H](N)CCCCN)C(=O)N[C@H](C)C(N)=O [Z30] (I: H-[dK][dL][dK]([dL-dK])[dK][dL][dK][dK][dL][dK][dK](Stearoyl)[dA]-NH2 / II: H-[dK][dL][dK]([dL-dK])[dK][dL][dK][dK][dL] / III: H-[dK][dL][dK]([dL-dK])[dK][dL] / IV: H-[dK][dL][dK]([dL-dK])[dK][dL]; amide I:6-IV:C, I:9-II:C, II:6-III:C)	91 ± 8%	75 ± 1%
CCCCCCCCCCCCCCCCCC(=O)NCCCC[C@@H](NC(=O)[C@@H](CCCCNC(=O)[C@@H](CC(C)C)NC(=O)[C@@H](CC(C)C)NC(=O)[C@@H](CCCCNC(=O)[C@@H](CC(C)C)NC(=O)[C@@H](CCCCN)NC(=O)[C@@H](CCCCNC(=O)[C@@H](CC(C)C)NC(=O)[C@H](N)CCCCN)NC(=O)[C@@H](CC(C)C)NC(=O)[C@H](N)CCCCN)NC(=O)[C@@H](CC(C)C)NC(=O)[C@@H](CCCCN)NC(=O)[C@@H](CCCCNC(=O)[C@@H](CC(C)C)NC(=O)[C@H](N)CCCCN)NC(=O)[C@@H](CC(C)C)NC(=O)[C@H](N)CCCCN)NC(=O)[C@@H](CC(C)C)NC(=O)[C@@H](CC(C)C)NC(=O)[C@@H](CCCCNC(=O)[C@@H](CC(C)C)NC(=O)[C@@H](CCCCN)NC(=O)[C@@H](CCCCNC(=O)[C@@H](CC(C)C)NC(=O)[C@H](N)CCCCN)NC(=O)[C@@H](CC(C)C)NC(=O)[C@H](N)CCCCN)NC(=O)[C@@H](CC(C)C)NC(=O)[C@@H](CCCCN)NC(=O)[C@@H](CCCCNC(=O)[C@@H](CC(C)C)NC(=O)[C@H](N)CCCCN)NC(=O)[C@@H](CC(C)C)NC(=O)[C@H](N)CCCCN)C(N)=O [Z31] (I: H-[dK][dL][dK]([dL-dK])[dK][dL][dK][dL][dL][dK][dK](Stearoyl)-NH2 / II: H-[dK][dL][dK]([dL-dK])[dK][dL][dK][dL][dL] / III: H-[dK][dL][dK]([dL-dK])[dK][dL] / IV: H-[dK][dL][dK]([dL-dK])[dK][dL]; amide I:6-IV:C, I:9-II:C, II:6-III:C)	91 ± 6%	96 ± 2%
CCCCCCCCCCCCCCCCCC(=O)NCCCC[C@@H](NC(=O)[C@@H](CCCCNC(=O)[C@@H](CC(C)C)NC(=O)[C@@H](CC(C)C)NC(=O)[C@@H](CCCCNC(=O)[C@@H](CC(C)C)NC(=O)[C@@H](CC(C)C)NC(=O)[C@@H](CCCCNC(=O)[C@@H](CC(C)C)NC(=O)[C@H](N)CCCCN)NC(=O)[C@@H](CC(C)C)NC(=O)[C@H](N)CCCCN)NC(=O)[C@@H](CC(C)C)NC(=O)[C@@H](CC(C)C)NC(=O)[C@@H](CCCCNC(=O)[C@@H](CC(C)C)NC(=O)[C@H](N)CCCCN)NC(=O)[C@@H](CC(C)C)NC(=O)[C@H](N)CCCCN)NC(=O)[C@@H](CC(C)C)NC(=O)[C@@H](CC(C)C)NC(=O)[C@@H](CCCCNC(=O)[C@@H](CC(C)C)NC(=O)[C@@H](CC(C)C)NC(=O)[C@@H](CCCCNC(=O)[C@@H](CC(C)C)NC(=O)[C@H](N)CCCCN)NC(=O)[C@@H](CC(C)C)NC(=O)[C@H](N)CCCCN)NC(=O)[C@@H](CC(C)C)NC(=O)[C@@H](CC(C)C)NC(=O)[C@@H](CCCCNC(=O)[C@@H](CC(C)C)NC(=O)[C@H](N)CCCCN)NC(=O)[C@@H](CC(C)C)NC(=O)[C@H](N)CCCCN)C(N)=O [Z32] (I: H-[dK][dL][dK]([dL-dK])[dL][dL][dK][dL][dL][dK][dK](Stearoyl)-NH2 / II: H-[dK][dL][dK]([dL-dK])[dL][dL][dK][dL][dL] / III: H-[dK][dL][dK]([dL-dK])[dL][dL] / IV: H-[dK][dL][dK]([dL-dK])[dL][dL]; amide I:6-IV:C, I:9-II:C, II:6-III:C)	97 ± 4%	111 ± 1%
CCCCCCCCCCCCCCCC(=O)NCCCC[C@@H](NC(=O)[C@@H](CCCCNC(=O)[C@@H](CC(C)C)NC(=O)[C@@H](CCCNC(=N)N)NC(=O)[C@@H](CCCCNC(=O)[C@@H](CC(C)C)NC(=O)[C@@H](CCCNC(=N)N)NC(=O)[C@@H](CCCCNC(=O)[C@@H](CC(C)C)NC(=O)[C@H](N)CCCNC(=N)N)NC(=O)[C@@H](CC(C)C)NC(=O)[C@H](N)CCCNC(=N)N)NC(=O)[C@@H](CC(C)C)NC(=O)[C@@H](CCCNC(=N)N)NC(=O)[C@@H](CCCCNC(=O)[C@@H](CC(C)C)NC(=O)[C@H](N)CCCNC(=N)N)NC(=O)[C@@H](CC(C)C)NC(=O)[C@H](N)CCCNC(=N)N)NC(=O)[C@@H](CC(C)C)NC(=O)[C@@H](CCCNC(=N)N)NC(=O)[C@@H](CCCCNC(=O)[C@@H](CC(C)C)NC(=O)[C@@H](CCCNC(=N)N)NC(=O)[C@@H](CCCCNC(=O)[C@@H](CC(C)C)NC(=O)[C@H](N)CCCNC(=N)N)NC(=O)[C@@H](CC(C)C)NC(=O)[C@H](N)CCCNC(=N)N)NC(=O)[C@@H](CC(C)C)NC(=O)[C@@H](CCCNC(=N)N)NC(=O)[C@@H](CCCCNC(=O)[C@@H](CC(C)C)NC(=O)[C@H](N)CCCNC(=N)N)NC(=O)[C@@H](CC(C)C)NC(=O)[C@H](N)CCCNC(=N)N)C(N)=O [Z33] (I: H-[dR][dL][dK]([dL-dR])[dR][dL][dK][dR][dL][dK][dK](Palmitoyl)-NH2 / II: H-[dR][dL][dK]([dL-dR])[dR][dL][dK][dR][dL] / III: H-[dR][dL][dK]([dL-dR])[dR][dL] / IV: H-[dR][dL][dK]([dL-dR])[dR][dL]; amide I:6-IV:C, I:9-II:C, II:6-III:C)	93 ± 6%	84 ± 1%
